Source: US20090313709A1, “Genetically Modified Animal and Use Thereof” (priority 2006, published 2009)

Tests used:
[1] = test system: isolated islets of Langerhans derived from control mice; assay: Insulin secretion from isolated islets of Langerhans of control mice with addition of palmitic acid; format: cell-based, mouse; conditions: 0.5 mM palmitic acid, 11 mM glucose, cultured 1 hour, insulin corrected by DNA amount
Protocol: (§1) Starting at 8 week-old, transgenic mice of the 47M strain and 23F strain were fed with a low-fat diet (D12450B, 10 kcal % fat, manufactured by Research Diets, Inc.) or a high-fat diet (D12492, 60 kcal % fat, manufactured by Research Diets, Inc.) for 8 weeks. Each mouse at 16 week-old had the duodenal side ligated, and the common bile duct cannulated, and a 1 mg/ml collagenase solution (manufactured by Wako Pure Chemical) was injected into the mouse pancreas. The pancreas receiving the injection was excised, placed in a tube containing the same collagenase solution, and shaken at 37° C. for 20 minutes. Subsequently, the solution was vigorously mixed for 30 seconds, and a Quenching buffer solution (Hanks Balanced Salt Solution comprising 0.001% DNaseI and 25 mM HEPES) containing 10% FBS was added to make a total volume of 20 ml. The solution was transferred to a Petri dish, and washed twice with the Quenching buffer solution, after which islets of Langerhans were recovered using a pipette under a microscopy, and this was used as the test sample. […] Meanwhile, after cultivation, islets of Langerhans were disrupted by sonication using a sonicator (manufactured by M & S Instruments Trading Inc.), the amount of DNA was determined using a Quant-iT™ Picogreen ds DNA Assay kit (manufactured by Molecular Probes), and the amount of insulin secreted was corrected.

[2] = test system: isolated islets of Langerhans derived from human GPR40 gene transgenic mice of the 47M strain; assay: Insulin secretion from isolated islets of Langerhans of human GPR40 gene transgenic mice (47M strain) with addition of palmitic acid; format: cell-based; conditions: transgenic mouse 47M strain islets; 0.5 mM palmitic acid, 11 mM glucose, cultured 1 hour; insulin corrected by DNA amount
Protocol: as §1

Structure (SMILES): CCCCCCCCCCCCCCCC(=O)O [palmitic acid]
- amount of insulin secreted, increase compared with the no-addition group [1]: about 1.5 times
- amount of insulin secreted, increase compared with the no-addition group [2]: about 6 times
